Experimental data taken from the supplement of paper PMC10307832.

Tests used:
Experiment in all cases: relative viability (nuclei count vs DMSO), 5 days (fraction); higher = more cells survive
Metformin + Palbociclib = compound: CN(C)C(=N)NC(=N)N [Metformin] + CC(=O)c1c(C)c2cnc(Nc3ccc(N4CCNCC4)cn3)nc2n(C2CCCC2)c1=O [Palbociclib] (partner 0.5 µM)
In short: (§1)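 Lung cancer cell lines in 1536-well plates got either a single drug or a fixed anchor-drug dose together with five library-drug doses (not always all listed) in √10 steps, by pin tool, on the day after seeding. Nuclei were counted after 5 days, and relative viability is the treated-to-vehicle ratio of nuclei counts. Values are medians of duplicate plates.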

Apatinib + Decitabine = compound: N#CC1(c2ccc(NC(=O)c3cccnc3NCc3ccncc3)cc2)CCCC1 [Apatinib] + Nc1ncn([C@H]2C[C@H](O)[C@@H](CO)O2)c(=O)n1 [Decitabine] (partner 2 µM)
In short: as §1

Apatinib + Alpelisib = compound: N#CC1(c2ccc(NC(=O)c3cccnc3NCc3ccncc3)cc2)CCCC1 [Apatinib] + Cc1nc(NC(=O)N2CCC[C@H]2C(N)=O)sc1-c1ccnc(C(C)(C)C(F)(F)F)c1 [Alpelisib] (partner 2 µM)
In short: as §1

Metformin + Pemetrexed = compound: CN(C)C(=N)NC(=N)N [Metformin] + Nc1nc2[nH]cc(CCc3ccc(C(=O)N[C@@H](CCC(=O)O)C(=O)O)cc3)c2c(=O)[nH]1 [Pemetrexed] (partner 0.2 µM)
In short: as §1

| Cell Line | relative viability (Metformin + Palbociclib; first compound 10 µM) | relative viability (Metformin + Palbociclib; first compound 31.62 µM) | relative viability (Metformin + Palbociclib; first compound 100 µM) | relative viability (Metformin + Palbociclib; first compound 316.23 µM) | relative viability (Metformin + Palbociclib; first compound 1000 µM) | relative viability (Apatinib + Decitabine; first compound 0.08 µM) | relative viability (Apatinib + Decitabine; first compound 0.253 µM) | relative viability (Apatinib + Decitabine; first compound 0.8 µM) | relative viability (Apatinib + Decitabine; first compound 2.53 µM) | relative viability (Apatinib + Decitabine; first compound 8 µM) | relative viability (Apatinib + Alpelisib; first compound 0.08 µM) | relative viability (Apatinib + Alpelisib; first compound 0.253 µM) | relative viability (Apatinib + Alpelisib; first compound 0.8 µM) | relative viability (Apatinib + Alpelisib; first compound 2.53 µM) | relative viability (Apatinib + Alpelisib; first compound 8 µM) | relative viability (Metformin + Pemetrexed; first compound 10 µM) | relative viability (Metformin + Pemetrexed; first compound 31.62 µM) | relative viability (Metformin + Pemetrexed; first compound 100 µM) | relative viability (Metformin + Pemetrexed; first compound 316.23 µM) | relative viability (Metformin + Pemetrexed; first compound 1000 µM) |
| --- | --- | --- | --- | --- | --- | --- | --- | --- | --- | --- | --- | --- | --- | --- | --- | --- | --- | --- | --- | --- |
| NCI-H2126 | 0.399 | 0.349 | 0.307 | 0.322 | 0.328 | 0.589 | 0.637 | 0.666 | 0.566 | 0.547 | 0.818 | 0.761 | 0.758 | 0.743 | 0.767 | 0.648 | 0.658 | 0.672 | 0.579 | 0.71 |
| CAL-12T | 0.579 | 0.53 | 0.488 | 0.384 | 0.423 |  |  |  |  |  | 1.11 | 1.13 | 1.22 | 1.04 | 1.04 | 1.05 | 1.04 | 1.26 | 1.13 | 0.97 |
| NCI-H358 | 0.114 | 0.125 | 0.122 | 0.138 | 0.141 | 0.225 | 0.219 | 0.24 | 0.218 | 0.316 | 0.87 | 0.914 | 0.831 | 0.882 | 0.781 | 0.156 | 0.182 | 0.146 | 0.162 | 0.179 |
| HCC-44 |  | 0.917 | 0.959 | 0.93 | 0.887 | 0.963 | 0.929 | 0.887 | 0.95 | 0.89 | 0.854 | 0.784 | 0.745 | 0.766 | 0.726 |  | 0.593 | 0.593 | 0.531 | 0.603 |
| EKVX |  | 0.312 | 0.355 | 0.384 | 0.357 | 0.352 | 0.291 | 0.339 | 0.309 | 0.298 | 0.92 | 0.861 | 0.882 | 0.761 | 0.774 |  | 0.301 | 0.417 | 0.316 | 0.294 |
| NCI-H1734 | 0.284 | 0.329 | 0.292 | 0.359 | 0.371 | 0.532 | 0.549 | 0.482 | 0.563 | 0.623 | 0.739 | 0.774 | 0.701 | 0.591 | 0.595 | 0.49 | 0.418 | 0.461 | 0.456 | 0.455 |
| NCI-H1395 | 0.504 | 0.716 | 0.627 | 0.508 | 0.448 | 0.747 | 0.808 | 0.781 | 0.744 | 0.859 | 1.23 | 1.16 | 1.06 | 1.18 | 0.931 | 1.05 | 1.1 | 0.998 | 0.624 | 0.488 |
| SW 900 | 0.542 | 0.536 |  | 0.497 | 0.578 | 0.417 | 0.479 | 0.447 | 0.562 | 0.652 |  |  |  |  |  | 0.52 | 0.479 |  | 0.507 | 0.477 |
| NCI-H1975 | 0.438 | 0.682 | 0.584 | 0.591 | 0.644 | 0.406 | 0.372 | 0.413 | 0.381 | 0.466 | 0.662 | 0.691 | 0.508 | 0.562 | 0.576 | 0.277 | 0.296 | 0.317 | 0.269 | 0.289 |
| Calu-6 |  |  |  |  |  |  |  |  |  |  | 1.02 | 1.12 | 0.956 | 0.895 | 0.73 |  |  |  |  |  |
| EBC-1 |  |  |  |  |  |  |  |  |  |  | 0.844 | 0.935 | 0.88 | 0.734 | 0.404 |  |  |  |  |  |
| NCI-H1792 |  | 0.663 | 0.817 | 0.698 | 0.238 | 0.596 | 0.55 | 0.544 | 0.591 | 0.609 | 0.794 | 0.743 | 0.68 | 0.641 | 0.553 | 0.968 | 0.862 | 0.952 | 0.697 | 0.903 |
| NCI-H596 |  |  |  |  |  | 1 | 1.18 | 0.916 | 1.04 | 1.08 | 0.535 | 0.528 | 0.579 | 0.402 | 0.222 | 0.582 | 0.563 | 0.546 | 0.498 | 0.539 |
| NCI-H1650 | 0.316 | 0.381 | 0.424 | 0.229 | 0.305 | 0.495 | 0.55 | 0.416 | 0.64 | 0.589 |  |  |  |  |  | 0.398 | 0.428 | 0.388 | 0.404 | 0.301 |
| NCI-H1944 | 0.386 | 0.44 | 0.404 | 0.344 | 0.404 | 0.41 | 0.466 | 0.401 | 0.421 | 0.504 | 0.868 | 0.905 | 0.74 | 0.798 | 0.866 | 0.505 | 0.75 | 0.625 | 0.687 | 0.576 |
| HCC-827 | 0.452 | 0.501 | 0.481 | 0.469 | 0.615 | 0.345 | 0.335 | 0.363 | 0.322 | 0.327 | 0.999 | 0.991 | 0.831 | 0.825 | 0.469 | 0.236 | 0.282 | 0.265 | 0.263 | 0.263 |
| NCI-H441 |  | 0.211 | 0.165 | 0.215 | 0.238 | 0.229 | 0.233 | 0.248 | 0.285 | 0.444 | 0.872 | 0.82 | 0.752 | 0.726 | 0.421 |  | 0.255 | 0.292 | 0.266 | 0.264 |
| LCLC-103H | 0.465 | 0.561 | 0.532 | 0.437 | 0.495 | 0.792 | 0.739 | 0.687 | 0.726 | 0.744 | 0.971 | 0.87 | 1.02 | 0.918 | 0.911 | 0.446 | 0.485 | 0.434 | 0.446 | 0.445 |
| HARA | 0.323 | 0.297 | 0.442 | 0.279 | 0.394 | 0.676 | 0.538 | 0.438 |  | 0.671 | 1.07 | 0.837 | 0.852 | 0.735 | 0.795 | 0.323 | 0.28 | 0.327 | 0.301 | 0.28 |
